Measured values: ChEMBL document CHEMBL4507320, “Data for DCP probe NVS-MALT1” (2021)
pKi: −log10 of the molar value. Calls of active or inactive are those of the source. No cut-off for these calls is given here.

Assays:
[1] = molecular target: Receptor-type tyrosine-protein kinase FLT3 (Homo sapiens, UniProt P36888); test: Kinase panel; design: compound concentration 10 uM
[2] = molecular target: T1, Mucosa-associated lymphoid tissue lymphoma translocation protein 1 (Homo sapiens, UniProt Q9UDY8); test: IL-2 – PMA + anti-CD28 + 50% Human whole blood; type: tissue-based
T1 sequence (Q9UDY8 whole entry): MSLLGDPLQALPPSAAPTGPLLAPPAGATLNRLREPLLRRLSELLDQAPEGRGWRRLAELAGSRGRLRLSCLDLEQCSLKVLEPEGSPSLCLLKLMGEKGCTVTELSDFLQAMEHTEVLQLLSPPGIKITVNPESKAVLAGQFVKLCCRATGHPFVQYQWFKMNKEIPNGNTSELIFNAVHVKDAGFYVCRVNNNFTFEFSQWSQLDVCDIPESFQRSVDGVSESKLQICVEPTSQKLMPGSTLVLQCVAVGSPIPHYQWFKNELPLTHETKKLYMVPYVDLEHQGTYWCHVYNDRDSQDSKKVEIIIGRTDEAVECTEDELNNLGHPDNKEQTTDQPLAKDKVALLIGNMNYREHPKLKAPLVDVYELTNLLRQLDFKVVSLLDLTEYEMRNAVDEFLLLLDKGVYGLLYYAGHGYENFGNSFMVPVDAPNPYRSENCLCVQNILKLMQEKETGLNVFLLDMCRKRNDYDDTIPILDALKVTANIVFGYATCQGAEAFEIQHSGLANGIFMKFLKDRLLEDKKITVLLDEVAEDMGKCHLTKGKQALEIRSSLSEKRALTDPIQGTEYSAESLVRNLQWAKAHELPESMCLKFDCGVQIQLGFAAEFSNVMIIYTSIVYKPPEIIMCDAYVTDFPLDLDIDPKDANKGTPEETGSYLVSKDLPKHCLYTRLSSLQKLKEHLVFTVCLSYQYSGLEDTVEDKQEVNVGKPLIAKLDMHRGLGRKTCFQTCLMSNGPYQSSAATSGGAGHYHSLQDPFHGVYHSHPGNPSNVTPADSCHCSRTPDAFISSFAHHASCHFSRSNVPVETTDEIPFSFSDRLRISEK

[3] = molecular target: Neutrophil elastase (Homo sapiens) (UniProt P08246); test: Neutrophil elastase 2 (h) Protease assay; settings: Compound concentration 10.0 uM
[4] = molecular target: T1, Mucosa-associated lymphoid tissue lymphoma translocation protein 1; test: Human biochemical (TR-FRET) assay (low salt)
[5] = molecular target: Cathepsin K (Homo sapiens) (UniProt P43235); test: Cathepsin K (h) Protease assay; settings: Compound concentration 10.0 uM
Chymase (Homo sapiens) = Chymase (Homo sapiens) (UniProt P23946); test: Chymase (h) Protease assay; settings: Compound concentration 10.0 uM
Trypsin (Homo sapiens) = Trypsin (Homo sapiens) (UniProt P07477+P07478+P35030); test: Trypsin (h) Protease assay; type: protein assay; settings: Compound concentration 10.0 uM
[6] = molecular target: Cathepsin S (Homo sapiens) (UniProt P25774); test: Cathepsin S (h) Protease assay; settings: Compound concentration 10.0 uM
[7] = molecular target: Neutrophil collagenase (Homo sapiens) (UniProt P22894); test: MMP-8 (h) Protease assay; settings: Compound concentration 10.0 uM
[8] = molecular target: Coagulation factor X (Homo sapiens) (UniProt P00742); test: Factor Xa (h) Protease assay; settings: Compound concentration 10.0 uM
[9] = molecular target: Prothrombin (Homo sapiens) (UniProt P00734); test: Thrombin (h) Protease assay; settings: Compound concentration 10.0 uM
[10] = molecular target: T1, Mucosa-associated lymphoid tissue lymphoma translocation protein 1; test: IL-2 – PMA + anti-CD28 + 50% Rat whole blood; type: tissue-based; settings: target entry is the homologue from another species
[11] = molecular target: Cathepsin B (Homo sapiens) (UniProt P07858); test: Cathepsin B (h) Protease assay; settings: Compound concentration 10.0 uM
[12] = molecular target: Procathepsin L (Homo sapiens) (UniProt P07711); test: Cathepsin L (h) Protease assay; settings: Compound concentration 10.0 uM
[13] = molecular target: Beta-2 adrenergic receptor (Homo sapiens) (UniProt P07550); settings: Compound concentration 10.0 uM
[14] = molecular target: Plasma kallikrein (Homo sapiens) (UniProt P03952); test: Plasma Kallikrein Protease assay; settings: Compound concentration 10.0 uM
[15] = molecular target: Coagulation factor VII (Homo sapiens) (UniProt P08709); test: Factor VIIa (h) Protease assay; settings: Compound concentration 10.0 uM
[16] = molecular target: Sigma intracellular receptor 2 (Homo sapiens, UniProt Q5BJF2); test: GPCRScan assay: inhibition of Sigma 2; design: radioligand conc. used [nm] 5.0, parental cells HEKT
[17] = molecular target: Sigma non-opioid intracellular receptor 1 (Homo sapiens, UniProt Q99720); test: GPCRScan assay: inhibition of Sigma 1; design: radioligand conc. used [nm] 4.0 – 5.0, parental cells HEKT
[18] = molecular target: Muscarinic acetylcholine receptor M1 (Homo sapiens) (UniProt P11229); settings: Compound concentration 10.0 uM
Muscarinic acetylcholine receptor M1 (Homo sapiens), sequence (P11229 whole entry): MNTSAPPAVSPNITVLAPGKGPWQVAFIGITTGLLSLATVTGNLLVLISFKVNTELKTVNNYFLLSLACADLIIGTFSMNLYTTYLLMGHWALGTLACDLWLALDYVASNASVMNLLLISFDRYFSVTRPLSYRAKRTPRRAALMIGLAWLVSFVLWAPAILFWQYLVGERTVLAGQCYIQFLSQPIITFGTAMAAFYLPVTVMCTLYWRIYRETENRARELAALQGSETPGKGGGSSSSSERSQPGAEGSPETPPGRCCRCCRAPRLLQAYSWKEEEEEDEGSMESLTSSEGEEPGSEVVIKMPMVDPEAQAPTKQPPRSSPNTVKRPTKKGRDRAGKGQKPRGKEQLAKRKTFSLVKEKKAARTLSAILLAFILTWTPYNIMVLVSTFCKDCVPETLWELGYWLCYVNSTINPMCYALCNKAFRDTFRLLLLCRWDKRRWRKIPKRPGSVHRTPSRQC

Beta-2 adrenergic receptor (Homo sapiens), sequence (P07550 whole entry, looked up): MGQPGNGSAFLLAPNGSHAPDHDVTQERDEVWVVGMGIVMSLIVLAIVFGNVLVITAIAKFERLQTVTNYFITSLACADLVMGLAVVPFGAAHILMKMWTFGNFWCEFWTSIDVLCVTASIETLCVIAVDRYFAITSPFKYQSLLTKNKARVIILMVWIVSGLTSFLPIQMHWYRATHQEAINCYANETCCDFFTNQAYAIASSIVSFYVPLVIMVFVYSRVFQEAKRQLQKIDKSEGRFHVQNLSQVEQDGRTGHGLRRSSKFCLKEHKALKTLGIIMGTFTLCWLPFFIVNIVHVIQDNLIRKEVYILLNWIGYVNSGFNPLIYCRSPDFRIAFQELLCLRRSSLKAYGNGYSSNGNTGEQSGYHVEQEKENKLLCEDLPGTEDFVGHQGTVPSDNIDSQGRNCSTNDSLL
Neutrophil elastase (Homo sapiens), sequence (P08246 whole entry): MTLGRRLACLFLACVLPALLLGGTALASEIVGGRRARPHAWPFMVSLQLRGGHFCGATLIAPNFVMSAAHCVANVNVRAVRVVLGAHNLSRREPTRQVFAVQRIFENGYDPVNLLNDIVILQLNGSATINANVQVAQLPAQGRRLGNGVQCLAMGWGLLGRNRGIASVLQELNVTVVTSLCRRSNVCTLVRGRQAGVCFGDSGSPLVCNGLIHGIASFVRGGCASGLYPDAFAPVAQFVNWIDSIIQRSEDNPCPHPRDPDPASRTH
Chymase (Homo sapiens), sequence (P23946 whole entry): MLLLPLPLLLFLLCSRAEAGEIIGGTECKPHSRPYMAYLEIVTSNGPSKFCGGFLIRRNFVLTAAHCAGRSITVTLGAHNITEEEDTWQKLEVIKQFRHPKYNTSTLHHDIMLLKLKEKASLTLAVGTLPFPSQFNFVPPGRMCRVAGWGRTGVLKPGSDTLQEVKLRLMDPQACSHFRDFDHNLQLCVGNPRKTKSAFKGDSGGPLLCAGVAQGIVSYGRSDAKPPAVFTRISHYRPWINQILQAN
Coagulation factor VII (Homo sapiens), sequence (P08709 61-212 limits assumed): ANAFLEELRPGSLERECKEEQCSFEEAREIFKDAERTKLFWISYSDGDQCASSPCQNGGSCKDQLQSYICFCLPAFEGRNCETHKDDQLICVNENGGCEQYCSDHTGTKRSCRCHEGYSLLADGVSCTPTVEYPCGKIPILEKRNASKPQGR
Coagulation factor VII (Homo sapiens), sequence (P08709 213-466 limits assumed): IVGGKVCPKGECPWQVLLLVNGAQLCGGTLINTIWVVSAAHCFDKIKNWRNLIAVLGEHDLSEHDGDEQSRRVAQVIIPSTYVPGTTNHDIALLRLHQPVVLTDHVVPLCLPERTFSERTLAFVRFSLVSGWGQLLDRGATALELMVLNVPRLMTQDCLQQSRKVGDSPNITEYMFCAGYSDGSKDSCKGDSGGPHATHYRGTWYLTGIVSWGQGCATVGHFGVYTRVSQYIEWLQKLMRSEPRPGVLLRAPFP
Neutrophil collagenase (Homo sapiens), sequence (P22894 101-467 limits assumed): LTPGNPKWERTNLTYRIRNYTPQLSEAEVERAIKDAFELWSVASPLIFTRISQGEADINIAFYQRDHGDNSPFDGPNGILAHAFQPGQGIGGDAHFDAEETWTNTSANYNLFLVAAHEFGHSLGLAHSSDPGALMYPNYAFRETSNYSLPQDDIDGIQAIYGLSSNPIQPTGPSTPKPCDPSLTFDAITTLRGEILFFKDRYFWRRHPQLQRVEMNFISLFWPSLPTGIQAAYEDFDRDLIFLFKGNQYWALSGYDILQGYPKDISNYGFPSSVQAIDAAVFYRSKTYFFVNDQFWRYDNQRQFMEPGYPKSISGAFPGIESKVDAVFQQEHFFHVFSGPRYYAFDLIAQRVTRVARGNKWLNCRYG
Procathepsin L (Homo sapiens), sequence (P07711 114-333 limits assumed): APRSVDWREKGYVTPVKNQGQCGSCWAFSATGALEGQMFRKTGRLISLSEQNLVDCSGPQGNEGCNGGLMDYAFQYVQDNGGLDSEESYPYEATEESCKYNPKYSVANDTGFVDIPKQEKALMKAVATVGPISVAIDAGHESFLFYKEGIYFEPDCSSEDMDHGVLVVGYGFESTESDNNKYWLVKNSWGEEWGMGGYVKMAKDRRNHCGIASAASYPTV
Plasma kallikrein (Homo sapiens), sequence (P03952 20-390 limits assumed): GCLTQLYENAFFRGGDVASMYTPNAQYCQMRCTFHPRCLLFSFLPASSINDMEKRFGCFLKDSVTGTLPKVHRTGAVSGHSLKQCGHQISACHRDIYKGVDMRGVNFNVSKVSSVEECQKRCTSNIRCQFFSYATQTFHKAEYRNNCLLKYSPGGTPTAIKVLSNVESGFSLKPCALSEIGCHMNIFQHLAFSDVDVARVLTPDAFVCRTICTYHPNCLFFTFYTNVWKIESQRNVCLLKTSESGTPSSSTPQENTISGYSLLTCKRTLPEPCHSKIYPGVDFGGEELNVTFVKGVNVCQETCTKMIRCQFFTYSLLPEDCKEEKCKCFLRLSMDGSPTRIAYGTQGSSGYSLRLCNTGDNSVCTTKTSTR
Plasma kallikrein (Homo sapiens), sequence (P03952 391-638 limits assumed): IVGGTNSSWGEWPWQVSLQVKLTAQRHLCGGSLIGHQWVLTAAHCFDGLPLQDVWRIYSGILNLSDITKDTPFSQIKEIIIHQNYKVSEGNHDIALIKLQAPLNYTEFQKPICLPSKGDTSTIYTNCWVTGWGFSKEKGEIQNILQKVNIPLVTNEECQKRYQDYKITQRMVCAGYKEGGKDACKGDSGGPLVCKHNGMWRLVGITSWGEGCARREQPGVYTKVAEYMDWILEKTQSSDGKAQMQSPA
Cathepsin K (Homo sapiens), sequence (P43235 whole entry): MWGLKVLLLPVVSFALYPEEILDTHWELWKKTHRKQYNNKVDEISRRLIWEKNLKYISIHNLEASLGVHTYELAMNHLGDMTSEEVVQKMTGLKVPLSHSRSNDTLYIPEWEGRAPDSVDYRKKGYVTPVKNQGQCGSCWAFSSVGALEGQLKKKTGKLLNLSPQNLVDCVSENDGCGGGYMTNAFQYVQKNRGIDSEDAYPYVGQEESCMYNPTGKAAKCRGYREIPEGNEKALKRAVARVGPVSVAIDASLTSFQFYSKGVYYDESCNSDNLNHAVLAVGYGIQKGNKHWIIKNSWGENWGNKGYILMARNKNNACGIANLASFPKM
Receptor-type tyrosine-protein kinase FLT3, sequence (P36888 whole entry): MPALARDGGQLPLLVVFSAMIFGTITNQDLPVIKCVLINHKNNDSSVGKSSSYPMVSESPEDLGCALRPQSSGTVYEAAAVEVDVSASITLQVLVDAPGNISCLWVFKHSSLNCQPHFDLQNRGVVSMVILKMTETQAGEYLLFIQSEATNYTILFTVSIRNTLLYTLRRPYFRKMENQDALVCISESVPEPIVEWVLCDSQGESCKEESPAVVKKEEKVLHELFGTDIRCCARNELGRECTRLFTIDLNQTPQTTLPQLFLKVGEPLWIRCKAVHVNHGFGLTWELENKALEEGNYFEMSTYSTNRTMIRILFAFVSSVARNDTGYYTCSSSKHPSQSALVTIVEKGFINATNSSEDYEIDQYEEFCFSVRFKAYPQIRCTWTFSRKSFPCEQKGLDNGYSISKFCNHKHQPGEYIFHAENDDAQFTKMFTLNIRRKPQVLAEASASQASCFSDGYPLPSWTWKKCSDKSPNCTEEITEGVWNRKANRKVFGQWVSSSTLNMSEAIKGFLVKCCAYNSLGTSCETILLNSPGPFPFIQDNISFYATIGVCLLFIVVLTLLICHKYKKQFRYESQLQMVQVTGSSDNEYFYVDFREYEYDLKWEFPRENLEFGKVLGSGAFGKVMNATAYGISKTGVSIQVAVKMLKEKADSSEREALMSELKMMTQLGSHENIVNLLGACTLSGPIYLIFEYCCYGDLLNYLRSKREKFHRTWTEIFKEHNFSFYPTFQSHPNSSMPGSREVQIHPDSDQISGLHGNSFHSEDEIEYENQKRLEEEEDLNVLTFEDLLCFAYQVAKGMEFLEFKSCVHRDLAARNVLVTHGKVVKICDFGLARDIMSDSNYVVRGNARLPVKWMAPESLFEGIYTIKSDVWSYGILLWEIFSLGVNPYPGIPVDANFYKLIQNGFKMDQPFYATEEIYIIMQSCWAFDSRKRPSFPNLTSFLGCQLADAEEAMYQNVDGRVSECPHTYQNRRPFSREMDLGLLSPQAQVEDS
Sigma intracellular receptor 2, sequence (Q5BJF2 whole entry): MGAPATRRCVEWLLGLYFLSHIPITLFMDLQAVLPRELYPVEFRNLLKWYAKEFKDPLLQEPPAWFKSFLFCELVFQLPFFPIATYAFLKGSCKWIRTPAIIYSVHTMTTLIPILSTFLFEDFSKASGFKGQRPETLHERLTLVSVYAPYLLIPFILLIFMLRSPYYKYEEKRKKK
Sigma non-opioid intracellular receptor 1, sequence (Q99720 whole entry): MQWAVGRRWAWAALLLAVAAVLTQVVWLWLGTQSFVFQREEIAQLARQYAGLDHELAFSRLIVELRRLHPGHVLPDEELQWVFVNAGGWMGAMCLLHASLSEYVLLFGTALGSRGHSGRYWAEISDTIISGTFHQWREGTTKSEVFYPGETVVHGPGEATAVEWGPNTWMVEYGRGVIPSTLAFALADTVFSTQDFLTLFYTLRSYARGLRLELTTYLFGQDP

## CO[C@@H](C)c1c(Nc2ccc([C@H](N(C)C(=O)C3CCS(=O)(=O)CC3)C(F)(F)F)cc2)cnc2cc(Cl)nn12 [NVS-MALT1]
[1]
  IC50: 3.5 µM (active)
[2]
  IC50: 0.2 µM (active)
[3]
  inhibition: -1%
[4]
  IC50: 0.018 µM (active)
[5]
  inhibition: 2%
Chymase (Homo sapiens)
  inhibition: -3%
Trypsin (Homo sapiens)
  inhibition: 0.8%
[6]
  inhibition: 7%
[7]
  inhibition: 0%
[8]
  inhibition: -9%
[9]
  inhibition: 0%
[10]
  IC50: 0.13 µM (active)
[11]
  inhibition: -4%
[12]
  inhibition: -3%
[13]
  inhibition: 26.7%
[14]
  inhibition: 5%
[15]
  inhibition: -1%

## CO[C@@H](C)c1c(Nc2ccc([C@@H](N(C)C(=O)C3CCS(=O)(=O)CC3)C(F)(F)F)cc2)cnc2cc(Cl)nn12 [NVS-MALT1-C]
[16]
  pKi: 6.05
[17]
  pKi: 5.80
[18]
  inhibition: -2.39%
